The source made the active and inactive calls.
Key:
HeLa = assay: viability loss in HeLa cells – cell-based, 24 h, cherry-picked samples, cytotoxicity control, dose response (AID 504726); type: functional; settings: Homo sapiens;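 also: potency for cytotoxicity as loss of luminescence signal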
cells [1] = type: functional, cell-based
cells [2] = type: functional, cell-based; remark: listed apart in the source
[3] = target: Acyl-homoserine lactone acylase PvdQ (Pseudomonas aeruginosa (strain LESB58), UniProt Q9I194); assay: PvdQ acylase enzyme activity blockers – biochemical, fluorescence, plate reader and imaging, cherry-picks, dose response (AID 493231)
[4] = target: Sphingosine 1-phosphate receptor 2 (Homo sapiens, UniProt O95136); assay: Dose Response Cell Based Assay for Agonists of the S1P2 Receptor of Purchased Analogues. [Related pubchem assays: 729, 843, 854, 736 ]; type: functional
Estrogen receptor = Estrogen receptor (Homo sapiens, UniProt P03372);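 also: potency for inhibiting coactivator peptide recruitment to the receptor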
Estrogen receptor beta [5] = target: T1, Estrogen receptor beta (Homo sapiens, UniProt Q92731);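 also: recombinant ER-beta bound to coactivator SRC1 peptide in presence of estradiol agonist; inhibitors block coactivator peptide binding and lower the FRET signal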
[6] = target: FAD-linked sulfhydryl oxidase ALR (Homo sapiens, UniProt P55789); assay: ALR-catalysed DTT oxidation blockers – biochemical, H2O2 detection, luminescence, cherry-pick, dose response (AID 493248)
[7] = target: Voltage-dependent T-type calcium channel subunit alpha-1H (Homo sapiens, UniProt O95180); type: functional;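 also: channel activity triggered by adding a high calcium stimulation buffer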
Nonstructural protein 1 = Nonstructural protein 1 (Influenza A virus, UniProt Q194T2); type: functional, Influenza A virus (A/California/07/2009(H1N1))
BJ [8] = assay: BJ-TERT-LT-ST fibroblast viability loss – cell-based, RAS-independent, luminescence, dose response (AID 1935); type: functional; settings: Homo sapiens;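 also: BJ fibroblasts immortalized with TERT plus LT and ST oncogenes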
cells [9] = assay: cells
[10] = NIH-3T3 fibroblast cytotoxicity, dose response, cytotoxicity control, cell-based, fluorescence, Alamar Blue, secondary assay (AID 2327); type: functional;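 also: NIH-3T3 mouse fibroblasts cultured with fluconazole at 8 µg/mL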
BJ [11] = assay: cells; type: functional, cell-based; settings: Homo sapiens
Cytochrome P450 3A4 = Cytochrome P450 3A4 (Homo sapiens, UniProt P08684);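 also: CYP3A4 tested as one member of a cytochrome P450 panel screen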
BJ [12] = assay: BJ-TERT fibroblast viability loss – cell-based, RAS-independent, luminescence, dose response (AID 1933); type: functional; settings: Homo sapiens
[13] = NIH3T3 cell viability loss – ATP luminescence, mouse fibroblasts, counter-screen, dose response (AID 2010); type: functional, cell-based;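 also: cells exposed to compound for about 90 hours before reading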
[14] = fluconazole-exposed Candida albicans growth modulators – fluorescence, retest, confirmation (AID 2467); type: functional, cell-based
Ephrin type-A receptor 4 = Ephrin type-A receptor 4 (Mus musculus, UniProt Q03137); assay: EphA4 ligand-binding antagonists – biochemical, colorimetric, mouse EphA4, primary screen (AID 689); type: functional
[15] = DRD fibroblast viability loss – cell-based, non-viral oncogenic, luminescence, dose response (AID 1934); type: functional; settings: Homo sapiens
[16] = Trypanosoma cruzi growth suppression in host cells – NIH3T3 host cells, beta-gal luminescence, confirmation (AID 2044); type: functional, cell-based;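 also: intracellular parasites grown in NIH/3T3 mouse fibroblasts as host cells; luminescent beta-galactosidase reporter signal from transgenic T. cruzi replicating inside host cells; inhibitors lower the luminescence signal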
[17] = target: T2, Calpain-2 catalytic subunit (Sus scrofa, UniProt P43367); assay: m-calpain protease blockers, concentration series – biochemical, fluorogenic peptide substrate, dose response (AID 1420); type: functional
T2 sequence (P43367 whole entry): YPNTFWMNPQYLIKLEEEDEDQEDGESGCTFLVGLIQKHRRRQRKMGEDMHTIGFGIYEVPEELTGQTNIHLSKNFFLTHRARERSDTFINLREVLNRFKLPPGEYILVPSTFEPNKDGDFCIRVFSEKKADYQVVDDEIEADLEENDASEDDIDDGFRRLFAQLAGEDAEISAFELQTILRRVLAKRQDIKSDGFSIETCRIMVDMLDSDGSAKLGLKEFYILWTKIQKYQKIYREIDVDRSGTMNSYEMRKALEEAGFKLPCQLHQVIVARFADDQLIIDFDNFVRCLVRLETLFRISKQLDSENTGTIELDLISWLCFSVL

INS1 = assay: INS-1E survival protection against cytokine death – cell-based, luminescence, retest, dose response (AID 449756); type: functional; settings: Rattus norvegicus;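 also: cell death triggered by IL-1 beta plus TNF-alpha plus IFN-gamma mixture; protective hits raise ATP signal compared with cytokine alone wells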
[18] = A Cell Based Secondary Assay To Explore Cytotoxicity of Compounds that Sensitize Mycobacterium Tuberculosis to Beta-Lactam Antibiotics.; type: functional
Estrogen receptor beta [19] = target: T1, Estrogen receptor beta; assay: blockers of SRC-3 recruitment to ERβ – biochemical, ELISA, streptavidin-HRP readout, orthogonal assay, confirmation (AID 1060)
[20] = viability loss of HPDE-C7K cells – cell-based, fluorescence, HTS, primary screen (AID 431); type: functional; settings: Homo sapiens
[21] = HPDE-C7 pancreatic duct cell viability loss – fluorescence, HTS (AID 430); type: functional, cell-based; settings: Homo sapiens
Streptococcus = assay: GAS UMAA2166 growth inhibition – luminescence, BacTiterGlo, counter-screen for streptokinase expression inhibitor project, dose response (AID 1915); type: functional, organism-based;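 also: potency for reduction of bacterial viability or growth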
[22] = target: C-C chemokine receptor type 6 (Homo sapiens, UniProt P51684); assay: antagonism of CCR6 beta-arrestin recruitment – cell-based, luminescent beta-arrestin readout, dose response (AID 504728); type: functional
[23] = tested on: Streptococcus sp. 'group A'; assay: Streptococcus pyogenes SK(-)GAS viability under kanamycin – luminescence, BacTiterGlo, confirmation, counter-screen for streptokinase expression inhibitor project, dose response (AID 1900); type: functional, organism-based
Beta-galactosidase = Beta-galactosidase (Escherichia coli, UniProt Q8VNN2); assay: detection-enzyme interference by beta-gal modulators – biochemical, E. coli enzyme, set 3, artefact control for CCR6 antagonist project, dose response (AID 504712); type: functional
[24] = target: Luciferin 4-monooxygenase (Photinus pyralis, UniProt P08659); assay: Counter Screen for Luciferase-based Assay Positives. [Related pubchem assays: 620, 618, 411 ]
HT-1080 = assay: HT1080 cell viability loss – fluorescence readout (AID 620); type: functional, cell-based; settings: Homo sapiens
[25] = Luminescence-based counterscreen assay for KLF5 inhibitors: dose response cell-based high throughput screening assay to identify cytotoxic compounds using the IEC-6 intestinal epithelial cell line. [Related pubchem assays: 1700 (Primary screen.), 1834 (Confirmation screen.), 1858 (Summary AID.), 1905 (Counterscreen.)]; type: functional
[26] = target: T3, Heat shock factor protein 1 (Mus musculus, UniProt P38532); assay: decrease of HSF1-responsive luciferase luminescence – cell-based, NIH3T3, dose retest, confirmation (AID 2382); type: functional;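 also: NIH3T3 fibroblasts with HSF1-driven luciferase reporter stressed by proteasome inhibitor MG132; luminescence from HSF1-driven luciferase expression after 8 hours of MG132 stress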
T3 sequence (P38532 whole entry): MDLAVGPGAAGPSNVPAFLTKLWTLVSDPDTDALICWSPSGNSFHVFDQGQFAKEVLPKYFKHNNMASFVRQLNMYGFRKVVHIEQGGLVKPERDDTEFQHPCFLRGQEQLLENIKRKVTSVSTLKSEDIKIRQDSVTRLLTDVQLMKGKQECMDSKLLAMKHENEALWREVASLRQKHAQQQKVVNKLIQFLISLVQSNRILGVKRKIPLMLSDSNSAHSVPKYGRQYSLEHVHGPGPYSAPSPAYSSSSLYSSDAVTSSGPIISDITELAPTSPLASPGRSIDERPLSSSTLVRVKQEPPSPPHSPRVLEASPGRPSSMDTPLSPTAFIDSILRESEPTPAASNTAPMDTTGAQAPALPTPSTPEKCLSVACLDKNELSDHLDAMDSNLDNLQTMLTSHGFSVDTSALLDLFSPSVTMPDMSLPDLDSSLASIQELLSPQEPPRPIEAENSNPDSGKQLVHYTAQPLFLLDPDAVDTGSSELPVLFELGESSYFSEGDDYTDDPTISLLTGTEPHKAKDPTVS

Genome polyprotein = Genome polyprotein (dengue virus type 2, UniProt P29990); assay: flavivirus cap methylation enzyme inhibition – biochemical, confirmation dose response, primary screen (AID 588689); type: functional
[27] = target: Neuropeptide Y receptor type 1 (Homo sapiens, UniProt P25929); assay: IC50 of human NPY-Y1 blockers – cell-based, dose response (AID 1277); type: functional
[28] = target: Neuropeptide Y receptor type 2 (Homo sapiens, UniProt P49146); assay: IC50 for human NPY-Y2 blockade – cell-based, counter-screen for NPY-Y1 antagonist project, dose response (AID 1278); type: functional
Sequence of Neuropeptide Y receptor type 2 (P49146 whole entry): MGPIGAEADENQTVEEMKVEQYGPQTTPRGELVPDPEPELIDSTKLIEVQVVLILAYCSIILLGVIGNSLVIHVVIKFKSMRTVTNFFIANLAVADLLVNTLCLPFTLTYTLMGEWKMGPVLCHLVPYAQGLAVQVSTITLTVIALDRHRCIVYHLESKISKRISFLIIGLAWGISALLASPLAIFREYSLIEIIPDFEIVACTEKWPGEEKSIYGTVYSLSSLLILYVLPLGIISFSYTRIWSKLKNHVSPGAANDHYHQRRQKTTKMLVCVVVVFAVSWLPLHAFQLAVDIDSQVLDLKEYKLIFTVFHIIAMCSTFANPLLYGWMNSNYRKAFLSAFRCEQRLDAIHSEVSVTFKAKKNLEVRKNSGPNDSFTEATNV

T1 sequence (Q92731 whole entry): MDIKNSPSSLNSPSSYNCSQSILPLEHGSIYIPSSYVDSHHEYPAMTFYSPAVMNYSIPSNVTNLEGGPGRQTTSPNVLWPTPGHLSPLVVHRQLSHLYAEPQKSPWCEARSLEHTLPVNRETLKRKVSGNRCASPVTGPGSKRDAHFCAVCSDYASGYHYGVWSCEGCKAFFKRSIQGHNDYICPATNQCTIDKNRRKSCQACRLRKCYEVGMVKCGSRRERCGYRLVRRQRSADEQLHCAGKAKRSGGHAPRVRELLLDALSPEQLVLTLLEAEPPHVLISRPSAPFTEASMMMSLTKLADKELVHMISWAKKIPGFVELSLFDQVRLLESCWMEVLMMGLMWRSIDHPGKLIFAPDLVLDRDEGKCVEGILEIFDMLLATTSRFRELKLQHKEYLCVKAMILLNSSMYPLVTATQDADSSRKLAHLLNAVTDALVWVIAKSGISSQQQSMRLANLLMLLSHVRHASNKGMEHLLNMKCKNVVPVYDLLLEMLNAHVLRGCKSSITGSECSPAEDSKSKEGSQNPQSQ
Sequence of Sphingosine 1-phosphate receptor 2 (O95136 whole entry): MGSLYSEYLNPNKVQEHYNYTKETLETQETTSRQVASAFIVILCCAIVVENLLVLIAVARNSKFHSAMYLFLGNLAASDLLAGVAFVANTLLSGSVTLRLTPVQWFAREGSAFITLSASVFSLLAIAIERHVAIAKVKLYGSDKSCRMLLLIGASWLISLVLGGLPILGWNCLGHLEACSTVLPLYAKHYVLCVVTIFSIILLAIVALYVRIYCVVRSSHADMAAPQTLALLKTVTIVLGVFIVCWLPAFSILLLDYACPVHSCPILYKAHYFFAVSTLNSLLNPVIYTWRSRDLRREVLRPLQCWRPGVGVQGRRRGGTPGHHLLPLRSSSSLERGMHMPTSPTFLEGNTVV
Sequence of Nonstructural protein 1 (Q194T2 whole entry): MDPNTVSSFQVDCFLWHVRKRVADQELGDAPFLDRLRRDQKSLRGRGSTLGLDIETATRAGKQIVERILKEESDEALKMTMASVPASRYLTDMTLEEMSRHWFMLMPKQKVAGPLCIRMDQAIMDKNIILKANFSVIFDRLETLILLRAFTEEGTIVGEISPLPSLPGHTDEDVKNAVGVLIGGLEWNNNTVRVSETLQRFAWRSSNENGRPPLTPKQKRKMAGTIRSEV
Sequence of Acyl-homoserine lactone acylase PvdQ (Q9I194 24-193 limits assumed): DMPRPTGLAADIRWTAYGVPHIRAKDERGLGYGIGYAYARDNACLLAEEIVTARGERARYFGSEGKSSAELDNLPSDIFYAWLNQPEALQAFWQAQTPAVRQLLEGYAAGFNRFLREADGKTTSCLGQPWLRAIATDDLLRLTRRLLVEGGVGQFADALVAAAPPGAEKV
Sequence of Acyl-homoserine lactone acylase PvdQ (Q9I194 217-762 limits assumed): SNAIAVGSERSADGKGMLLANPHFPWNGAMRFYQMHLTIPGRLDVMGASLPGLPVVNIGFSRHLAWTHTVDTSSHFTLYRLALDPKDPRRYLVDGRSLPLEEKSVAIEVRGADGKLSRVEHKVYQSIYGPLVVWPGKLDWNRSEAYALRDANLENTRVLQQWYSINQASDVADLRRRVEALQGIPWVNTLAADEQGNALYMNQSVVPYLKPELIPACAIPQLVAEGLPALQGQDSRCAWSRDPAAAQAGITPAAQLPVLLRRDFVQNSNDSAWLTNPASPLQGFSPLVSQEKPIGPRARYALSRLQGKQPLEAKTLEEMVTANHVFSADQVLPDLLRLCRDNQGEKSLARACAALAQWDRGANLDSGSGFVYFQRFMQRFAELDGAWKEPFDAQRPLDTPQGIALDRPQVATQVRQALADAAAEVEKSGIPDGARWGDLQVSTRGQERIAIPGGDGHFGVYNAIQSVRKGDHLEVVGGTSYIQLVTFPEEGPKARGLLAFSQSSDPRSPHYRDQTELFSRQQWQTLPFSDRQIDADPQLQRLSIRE
Sequence of Neuropeptide Y receptor type 1 (P25929 whole entry): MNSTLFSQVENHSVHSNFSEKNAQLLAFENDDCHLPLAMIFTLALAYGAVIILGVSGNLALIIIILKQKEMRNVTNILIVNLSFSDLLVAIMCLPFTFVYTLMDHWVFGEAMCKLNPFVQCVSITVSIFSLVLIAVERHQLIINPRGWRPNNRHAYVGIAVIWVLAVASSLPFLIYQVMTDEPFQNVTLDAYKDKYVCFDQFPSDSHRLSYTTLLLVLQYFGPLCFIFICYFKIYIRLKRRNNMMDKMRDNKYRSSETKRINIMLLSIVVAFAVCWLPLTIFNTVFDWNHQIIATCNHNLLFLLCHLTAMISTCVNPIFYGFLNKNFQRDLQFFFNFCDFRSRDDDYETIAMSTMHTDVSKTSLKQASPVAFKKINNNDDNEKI
Sequence of Luciferin 4-monooxygenase (P08659 whole entry): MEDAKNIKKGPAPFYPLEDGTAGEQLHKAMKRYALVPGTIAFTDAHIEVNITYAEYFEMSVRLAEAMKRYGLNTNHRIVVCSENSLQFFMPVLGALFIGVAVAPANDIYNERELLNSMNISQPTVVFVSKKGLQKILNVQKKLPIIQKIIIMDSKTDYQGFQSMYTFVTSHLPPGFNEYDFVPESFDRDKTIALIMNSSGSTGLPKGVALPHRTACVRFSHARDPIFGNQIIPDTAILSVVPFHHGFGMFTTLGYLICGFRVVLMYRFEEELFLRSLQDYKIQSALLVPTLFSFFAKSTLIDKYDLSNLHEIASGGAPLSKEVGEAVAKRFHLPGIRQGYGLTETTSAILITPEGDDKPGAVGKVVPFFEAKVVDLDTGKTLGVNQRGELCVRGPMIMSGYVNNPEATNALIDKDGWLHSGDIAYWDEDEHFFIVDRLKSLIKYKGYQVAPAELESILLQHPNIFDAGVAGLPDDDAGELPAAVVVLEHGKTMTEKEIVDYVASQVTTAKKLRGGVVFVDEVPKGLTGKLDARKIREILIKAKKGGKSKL
Sequence of C-C chemokine receptor type 6 (P51684 whole entry): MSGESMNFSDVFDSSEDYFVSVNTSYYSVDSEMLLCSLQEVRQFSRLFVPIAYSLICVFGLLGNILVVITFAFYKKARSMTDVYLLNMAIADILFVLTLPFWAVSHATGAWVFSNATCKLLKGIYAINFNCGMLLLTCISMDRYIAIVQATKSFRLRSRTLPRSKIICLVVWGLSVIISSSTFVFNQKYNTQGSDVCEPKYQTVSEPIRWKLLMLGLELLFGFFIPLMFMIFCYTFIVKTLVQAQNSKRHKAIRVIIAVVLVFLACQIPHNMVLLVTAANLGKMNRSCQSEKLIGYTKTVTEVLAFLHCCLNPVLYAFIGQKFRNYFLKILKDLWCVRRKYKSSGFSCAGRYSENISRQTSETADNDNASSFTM
Sequence of Ephrin type-A receptor 4 (Q03137 whole entry): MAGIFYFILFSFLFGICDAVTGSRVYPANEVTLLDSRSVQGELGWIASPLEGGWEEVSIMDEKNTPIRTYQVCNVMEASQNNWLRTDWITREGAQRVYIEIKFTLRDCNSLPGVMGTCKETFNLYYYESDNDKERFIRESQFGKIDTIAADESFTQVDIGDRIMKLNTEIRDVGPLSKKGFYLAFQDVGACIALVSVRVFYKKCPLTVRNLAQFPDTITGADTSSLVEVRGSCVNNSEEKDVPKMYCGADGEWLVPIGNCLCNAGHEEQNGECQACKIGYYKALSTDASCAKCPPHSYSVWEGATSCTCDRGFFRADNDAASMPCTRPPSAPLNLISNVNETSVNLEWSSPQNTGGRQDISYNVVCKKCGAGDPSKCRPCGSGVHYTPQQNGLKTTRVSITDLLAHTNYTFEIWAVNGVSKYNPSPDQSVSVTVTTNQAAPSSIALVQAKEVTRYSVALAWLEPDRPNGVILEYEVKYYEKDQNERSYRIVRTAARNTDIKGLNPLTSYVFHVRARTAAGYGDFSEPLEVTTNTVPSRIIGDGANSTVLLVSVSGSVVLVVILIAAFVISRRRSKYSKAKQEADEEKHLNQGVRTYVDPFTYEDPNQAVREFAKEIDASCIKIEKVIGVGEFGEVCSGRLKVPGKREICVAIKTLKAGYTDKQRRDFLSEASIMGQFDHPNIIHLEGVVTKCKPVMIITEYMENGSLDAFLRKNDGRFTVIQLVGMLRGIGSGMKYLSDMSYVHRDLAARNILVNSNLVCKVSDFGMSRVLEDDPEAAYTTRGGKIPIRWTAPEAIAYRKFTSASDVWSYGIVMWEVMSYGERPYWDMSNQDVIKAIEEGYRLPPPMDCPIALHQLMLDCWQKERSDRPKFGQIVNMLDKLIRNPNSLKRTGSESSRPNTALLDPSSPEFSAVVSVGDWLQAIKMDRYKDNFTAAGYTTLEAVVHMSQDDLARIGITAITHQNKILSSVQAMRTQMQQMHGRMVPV
Sequence of FAD-linked sulfhydryl oxidase ALR (P55789 whole entry): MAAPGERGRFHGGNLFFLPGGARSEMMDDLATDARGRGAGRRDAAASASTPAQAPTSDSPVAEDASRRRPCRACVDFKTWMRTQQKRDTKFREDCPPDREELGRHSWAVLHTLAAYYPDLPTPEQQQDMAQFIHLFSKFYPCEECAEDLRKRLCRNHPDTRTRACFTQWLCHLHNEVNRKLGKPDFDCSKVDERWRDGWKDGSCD

In the case of N=c1ccn(Cc2ccc(Cl)cc2)cc1, the AC50 (HeLa) was 16.4 µM (active).
With CCOC(=O)N1CCN(c2ccc(Cl)c(Cl)c2)CC1 the EC50 (cells [1]) was > 350 µM (not active), the EC50 (cells [2]) was > 350 µM (not active) and the AC50 [3] was 25.5 µM (active).
For CC(=O)c1cccc(OCC(=O)c2cc(C)n(Cc3ccccc3)c2C)c1, the EC50 [4] was > 30 µM (not active).
For COC(=O)c1sc2nc(-c3ccco3)ccc2c1N, the IC50 (Estrogen receptor) was > 50 µM (not active), the IC50 (Estrogen receptor beta [5]) was 34.7 µM (not active) and the AC50 [6] was 2.84 µM (active).
For CCN1/C(=C/c2ccc3cccc(C)c3[n+]2CC)Sc2ccccc21, the EC50 [7] was 1.77 µM (active), the IC50 (Nonstructural protein 1) was > 100 µM (active) and the EC50 (BJ [8]) was 1.17 µM (inconclusive). The EC50 (cells [9]) was 0.031 µM (active), the EC50 [10] was 18.6 µM (inconclusive) and the EC50 (BJ [11]) was 1.19 µM (active). The AC50 (Cytochrome P450 3A4) was 8.91 µM (inconclusive), the EC50 (BJ [12]) was 0.37 µM (inconclusive) and the EC50 [13] was 5.26 µM (active). The EC50 [14] was < 0.03 µM (active), the IC50 (Ephrin type-A receptor 4) was 44.1 µM (active) and the EC50 [15] was 13.6 µM (inconclusive). For the same molecule, the EC50 [16] was < 0.1 µM (active) and the IC50 [17] was > 50 µM (not active).
In the case of C=CC[C@@H](CC(=O)N(CCO)Cc1ccccc1)C(=O)NC[C@H](OC(=O)[C@@H](CC=C)CC(=O)OC(C)(C)C)c1ccccc1, the AC50 (HeLa) was 57.2 µM (active).
In the case of COc1nc(Nc2nc(O)c3ccccc3n2)nc2ccc(C)cc12, the AC50 (INS1) was 1.31 µM (active), the EC50 (BJ [8]) was 2.88 µM (inconclusive) and the EC50 (BJ [11]) was 2.93 µM (active). The EC50 (BJ [12]) was 2.6 µM (active), the CC50 [18] was 3.83 µM (active) and the EC50 [15] was 2.3 µM (active).
In the case of N#CC1=C(SCC(=O)Nc2cccc3cccnc23)NC(=O)C(C#N)C12CCCCC2 (configuration not stated), the IC50 (Estrogen receptor beta [19]) was > 50 µM (not active), the IC50 (Estrogen receptor beta [5]) was > 50 µM (not active) and the EC50 [20] was > 20 µM (not active). For the same molecule, the EC50 [21] was > 20 µM (not active).
For Cc1cc(C(=O)CSc2nnnn2C(C)(C)C)c(C)n1Cc1ccccc1, the EC50 [4] was > 30 µM (not active).
With Nc1ccc(OCc2ccccc2)cc1[N+](=O)[O-] the IC50 (Nonstructural protein 1) was 58.3 µM (active) and the AC50 [3] was 12.5 µM (active).
For CN(C)c1nc(N/N=C/c2ccccc2O)nc(Nc2ccc(F)cc2)n1, the AC50 (INS1) was 3.59 µM (active), the EC50 (Streptococcus) was 5.81 µM (active) and the IC50 [22] was > 66.6 µM (inactive). For the same molecule, the EC50 [23] was 3.62 µM (active) and the IC50 (Beta-galactosidase) was > 66.6 µM (inactive).
With Cc1c(C(=O)NC2=NCCS2)oc2ccccc12 the EC50 [24] was 2.67 µM (active) and the EC50 (HT-1080) was > 50 µM (not active).
With O=C(CCCc1ccccc1)c1ccc2c(c1)OCCO2 the EC50 [24] was < 0.2 µM (active), the IC50 [25] was > 39.8 µM (not active) and the EC50 (HT-1080) was > 50 µM (not active). For the same molecule, the EC50 [26] was < 0.16 µM (active).
With O=C(O)c1ccc(N(c2ccccc2)c2ccccc2)cc1 the IC50 (Genome polyprotein) was 60.3 µM (active), the IC50 [27] was 31.9 µM (not active) and the IC50 [28] was > 35 µM (not active).
For Oc1ccc(-c2n[nH]cc2-c2nc3ccccc3s2)c(O)c1, the IC50 [27] was > 35 µM (not active) and the IC50 [28] was > 35 µM (not active).
